Values joined by “and” are separate entries in the source; they are usually repeats but may differ in a detail not shown here. Equal entries are not always repeated.
Biological target: T1, human GPR119 (Homo sapiens, UniProt Q8TDV5)
T1 construct: expressed in transfected cells
T1 sequence (Q8TDV5 1-335): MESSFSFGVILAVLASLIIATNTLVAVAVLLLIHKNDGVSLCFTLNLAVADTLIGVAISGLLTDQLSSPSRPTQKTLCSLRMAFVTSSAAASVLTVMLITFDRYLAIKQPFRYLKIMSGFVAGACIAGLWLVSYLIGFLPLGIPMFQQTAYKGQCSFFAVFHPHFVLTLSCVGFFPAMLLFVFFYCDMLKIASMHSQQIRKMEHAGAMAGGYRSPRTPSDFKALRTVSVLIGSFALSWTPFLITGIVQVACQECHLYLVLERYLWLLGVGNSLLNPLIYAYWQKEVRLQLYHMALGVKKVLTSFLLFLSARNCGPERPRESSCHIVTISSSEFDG
Experiment: Cyclic AMP assay in stable cell line
Type: cell-based
Details: CHO-K1 cells stably transfected with human GPR119; cAMP levels (FRET, cAMP femto kit); 1 h at 37° C; read-out: EC50 Range
Description: Cyclic AMP Assay in Stable Cell Line:
Chinese Hamster Ovary (CHO-K1) cells were stably transfected with human GPR119 and were maintained in Ham's F-12 complete medium containing 10% heat inactivated FBS (Sigma, UK). The cells were maintained under a selection pressure with 500 μg/ml G418 (GENETICIN). Stable clones were analyzed for functional cAMP response to OEA (oleoylethanolamide).
To estimate activation of GPR119 and induction of cAMP levels by GPR119 agonists, cells were serum starvation for 18-24 h, trypsinized and seeded in 96 well plates at a, density of 7500 cells/well. The cells were then treated with test compounds diluted in serum free Ham's F12 for 1 h at 37° C. The cAMP levels were measured by using the cAMP femto kit (CisBio) by following the manufacturer's instructions. Following treatment with a test compound, the cells were lysed and cAMP levels were estimated by adding D2-labelled cAMP and europium-cryptate conjugated anti-cAMP antibody. Close proximity of D2 and cryptate results in FRET and the subsequent fluorescence that is measured at 665 and 620 nm. The FRET response is calculated as the ratio of fluorescence at 665 to fluorescence at 620 nm. The unlabelled cAMP produced as a result of GPR119 activation/agonism competes with the D2-cAMP leading to a decrease in the FRET signal. Thus the FRET signal is inversely proportional to the amount of cAMP produced by the treated cells. In a separate set of wells, known concentrations of cAMP were added in order to get a standard linear curve for extrapolation of the cAMP values in the unknown/test samples. Fluorescence was measured on BMG Labtech PHERAstar machine.
The concentration of compound required to stimulate a half-maximal response (EC50) was determined using the GraphPad Prism software.
The compounds prepared were tested using the above assay procedure and the results obtained are given below.

EC50, < 50 nM:
CC(C)(C)OC(=O)N1CC2COCC(C1)C2Oc1ccc(-n2ccc3cc(S(C)(=O)=O)ccc32)nc1 (stereo not drawn) [Example-49, (anti) tert-Butyl-9-((6-(5-(methylsulfonyl)-1H-indol-1-yl)pyridin-3-yl)oxy)-3-oxa-7-azabicyclo[3.3.1]nonane-7-carboxylate]
CCc1cnc(N2CCC(Oc3ccc(-n4ccc5cc(NC(=O)OC(C)C)ccc54)nc3)CC2)nc1 [Example-132, Isopropyl(1-(5-((1-(5-ethylpyrimidin-2-yl)piperidin-4-yl)oxy)pyridin-2-yl)-1H-indol-5-yl)carbamate]
CCc1cnc(N2CCC(Oc3ccc(-n4ccc5cc(-n6cncn6)ccc54)nc3)CC2)nc1 [Example-190, 1-(5-((1-(5-Ethylpyrimidin-2-yl)piperidin-4-yl)oxy)pyridin-2-yl)-5-(1H-1,2,4-triazol-1-yl)-1H-indole]
CC(C)OC(=O)N1CCC(Oc2ccc(-n3ccc4cc(C(=O)N(C)C)ccc43)nc2)CC1 [Example-74, Isopropyl 4-((6-(5-(dimethylcarbamoyl)-1H-indol-1-yl)pyridin-3-yl)oxy) piperidine-1-carboxylate]
CC(C)C(=O)Nc1ccc2c(ccn2-c2ccc(OC3CCN(C(=O)OC(C)(C)C)CC3)cn2)c1 [Example-56, tert-Butyl-4-((6-(5-isobutyramido-1H-indol-1-yl)pyridin-3-yl)oxy)-piperidine-1-carboxylate]
CCc1cnc(N2CCC(Oc3ccc(-n4ccc5cc(C(=O)N6CCCC6)ccc54)nc3)CC2)nc1 [Example-71, (1-(5-((1-(5-Ethylpyrimidin-2-yl)piperidin-4-yl)oxy)pyridin-2-yl)-1H-indol-5-yl)(pyrrolidin-1-yl)methanone]
CC(C)(C)CN1CCC(Oc2ccc(-n3ccc4cc(S(C)(=O)=O)ccc43)nc2)CC1 [Example-35, 5-(Methylsulfonyl)-1-(5-((1-neopentylpiperidin-4-yl)oxy)pyridin-2-yl)-1H-indole]
CCc1cnc(N2CCC(Oc3ccc(-n4ccc5cc(C(=O)N(C)C)ccc54)nc3)CC2)nc1 [Example-40, 1-(5-((1-(5-Ethylpyrimidin-2-yl)piperidin-4-yl)oxy)pyridin-2-yl)-N,N-dimethyl-1H-indole-5-carboxamide]
CC(C)C(=O)Nc1ccc2c(ccn2-c2ccc(OC3CCN(c4nc(C(C)C)no4)CC3)cn2)c1 [Example-57, N-(1-(5-((1-(3-Isopropyl-1,2,4-oxadiazol-5-yl)piperidin-4-yl)oxy)pyridin-2-yl)-1H-indol-5-yl)isobutyramide]
CCOC(=O)Nc1ccc2c(ccn2-c2ccc(OC3CCN(C(=O)OC(C)(C)C)CC3)cn2)c1 [Example-8, tert-Butyl-4-((6-(5-((ethoxycarbonyl)amino)-1H-indol-1-yl)pyridin-3-yl)oxy)piperidine-1-carboxylate]
CC(C)(C)OC(=O)N1CCC(OCc2ccc(N3CCc4cc(S(C)(=O)=O)ccc43)nc2)CC1 [Example-46, tert-Butyl-4-((6-(5-(methylsulfonyl)indolin-1-yl)pyridin-3-yl)methoxy) piperidine-1-carboxylate]
CC(C)(F)CN1CCC(Oc2ccc(-n3ccc4cc(S(C)(=O)=O)ccc43)nc2)CC1 [Example-14, 1-(5-((1-(2-Fluoro-2-methylpropyl)piperidin-4-yl)oxy)pyridin-2-yl)-5-(methylsulfonyl)-1H-indole]
CCc1cnc(N2CCC(Oc3ccc(-n4ccc5cc(NC(=O)C(C)C)ccc54)nc3)CC2)nc1 [Example-123, N-(1-(5-((1-(5-Ethylpyrimidin-2-yl)piperidin-4-yl)oxy)pyridin-2-yl)-1H-indol-5-yl)isobutyramide]
CC(C)(C)OC(=O)N1CCC(COc2ccc(-n3ccc4cc(S(C)(=O)=O)ccc43)nc2)CC1 [Example-5, tert-Butyl-4-(((6-(5-(methylsulfonyl)-1H-indol-1-yl)pyridin-3-yl)oxy)methyl)piperidine-1-carboxylate]
CCOC(=O)N1CCC(Oc2ccc(-n3ccc4cc(-n5cnnn5)ccc43)nc2)CC1 [Example-187, Ethyl-4-((6-(5-(1H-tetrazol-1-yl)-1H-indol-1-yl)pyridin-3-yl)oxy)-piperidine-1-carboxylate]
CC(C)OC(=O)N1CCC(Oc2ccc(-n3ccc4cc(S(C)(=O)=O)ccc43)nc2)CC1 [Example-169, Isopropyl 4-((6-(5-(methylsulfonyl)-1H-indol-1-yl)pyridin-3-yl)oxy) piperidine-1-carboxylate]

EC50, 50 to 250 nM:
Cc1noc(N2CCC(Oc3ccc(-n4ccc5cc(S(=O)(=O)C(C)C)ccc54)nc3)CC2)n1 [Example-18, 5-(4-((6-(5-(Isopropylsulfonyl)-1H-indol-1-yl)pyridin-3-yl)oxy)piperidin-1-yl)-3-methyl-1,2,4-oxadiazole]
CS(=O)(=O)c1ccc2c(ccn2-c2ccc(OC3CCN(Cc4ccc(C(F)(F)F)cc4)CC3)cn2)c1 [Example-153, 5-(Methylsulfonyl)-1-(5-((1-(4-(trifluoromethyl)benzyl)piperidin-4-yl)oxy)pyridin-2-yl)-1H-indole]
CC(C)(C)OC(=O)N1CCC(Oc2ccc(-n3ccc4cc(C(=O)NCCO)ccc43)nc2)CC1 [Example-76, tert-Butyl-4-((6-(5-((2-hydroxyethyl)carbamoyl)-1H-indol-1-yl)-pyridin-3-yl)oxy)piperidine-1-carboxylate]
CC(C)OC(=O)N1CCC(OCc2ccc(-n3ccc4cc(S(C)(=O)=O)ccc43)nc2)CC1 [Example-108, Isopropyl 4-((6-(5-(methylsulfonyl)-1H-indol-1-yl)pyridin-3-yl)methoxy)piperidine-1-carboxylate]
CNC(=O)c1ccc2c(ccn2-c2ccc(OCC3CCN(C(=O)OC(C)(C)C)CC3)cn2)c1 [Example-66, tert-Butyl-4-(((6-(5-(methylcarbamoyl)-1H-indol-1-yl)pyridin-3-yl)-oxy)methyl)piperidine-1-carboxylate]
CC(C)NC(=O)c1ccc2c(ccn2-c2ccc(OC3CCN(C(=O)OC(C)(C)C)CC3)cn2)c1 [Example-62, tert-Butyl-4-((6-(5-(isopropylcarbamoyl)-1H-indol-1-yl)pyridin-3-yl)oxy) piperidine-1-carboxylate]
CCc1cnc(N2CCC(Nc3ccc(-n4ccc5cc(S(C)(=O)=O)ccc54)nc3)CC2)nc1 [Example-119, N-(1-(5-Ethylpyrimidin-2-yl)piperidin-4-yl)-6-(5-(methylsulfonyl)-1H-indol-1-yl)pyridin-3-amine]

EC50, < 50 nM and 50 to 250 nM:
CC(C)OC(=O)N1CCC(COc2ccc(-n3ccc4cc(NC(=O)C(C)C)ccc43)nc2)CC1 [Example-126, Isopropyl 4-(((6-(5-isobutyramido-1H-indol-1-yl)pyridin-3-yl)oxy)methyl)piperidine-1-carboxylate]
CC(C)CN1CCC(Oc2ccc(-n3ccc4cc(S(C)(=O)=O)ccc43)nc2)CC1 [Example-30, 1-(5-((1-Isobutylpiperidin-4-yl)oxy)pyridin-2-yl)-5-(methylsulfonyl)-1H-indole]

EC50, 250 to 1000 nM:
CC(C)c1noc(-c2ccc3c(ccn3-c3ccc(OC4CCN(C(=O)OC(C)(C)C)CC4)cn3)c2)n1 [Example-99, tert-Butyl-4-((6-(5-(3-isopropyl-1,2,4-oxadiazol-5-yl)-1H-indol-1-yl)pyridin-3-yl)oxy)piperidine-1-carboxylate]
CCOC(=O)N1CCC(OCc2ccc(-n3ccc4cc(S(C)(=O)=O)ccc43)nc2)CC1 [Example-107, Ethyl 4-((6-(5-(methylsulfonyl)-1H-indol-1-yl)pyridin-3-yl)methoxy) piperidine-1-carboxylate]
Cc1noc(N2CCC(OCc3ccc(-n4ccc5cc(S(C)(=O)=O)ccc54)nc3)CC2)n1 [Example-112, 3-Methyl-5-(4-((6-(5-(methylsulfonyl)-1H-indol-1-yl)pyridin-3-yl)methoxy)piperidin-1-yl)-1,2,4-oxadiazole]
CCc1cnc(N2CCC(Oc3ccc(-n4ccc5cc(-c6nc(C(C)C)no6)ccc54)nc3)CC2)nc1 [Example-100, 5-(1-(5-((1-(5-Ethylpyrimidin-2-yl)piperidin-4-yl)oxy)pyridin-2-yl)-1H-indol-5-yl)-3-isopropyl-1,2,4-oxadiazole]

— patent US9000175B2, “Bicyclic GPR119 modulators” (Lupin Limited, priority 2010, dated 2015)
